According to patent US8512995B2, “DNA encoding polypeptide involved in biosynthesis of herboxidiene” (Eisai R&D Management Co., Ltd., priority 2008, dated 2013):

Tested on: WiDr human colon cancer cells
Experiment: Proliferation inhibitory action on WiDr human colon cancer cells (CellTiter-Glo luminescence)
Format: cell-based
Details: 72 h, 3 days culture, CellTiter-Glo luciferase luminescence as indicator of living cells
Procedure: WiDr human colon cancer cells, which had been cultured in an RPMI1640 medium (manufactured by SIGMA) containing 10% fetal bovine serum, penicillin (100 units/mL) and streptomycin (100 μg/mL), were dispersed on a 96-well plate in an amount of 2×10^3 cells/90 μl/well. The cells were cultured in a CO2 incubator overnight. Thereafter, 10 μl of the aforementioned culture solution containing the compound HX354 or HX355 of 3-fold dilution series used in the aforementioned examples was added to the culture, and the mixture was then cultured. Three days later, 50 μl of CellTiter-Glo Luminescent Cell Viability Assay (Promega) was added to the culture, the mixture was then shaken for 2 minutes, and it was then left at rest for 15 minutes. Thereafter, luciferase luminescence was measured with a luminometer, and the measured luminescence was used as an indicator for the number of living cells
The concentrations (IC50 values) of HX354 and HX355, where the proliferation of the WiDr human colon cancer cells was inhibited by were obtained.

SMILES	IC50
CCC(OC)C(C)C1OC1(C)CC(C)/C=C/C=C(\C)C1OC(CC(=O)O)CCC1C (centres unmarked) [HX354]	91 nM
CCC(O)C(C)C1OC1(C)CC(C)/C=C/C=C(\C)C1OC(CC(=O)O)CCC1C (centres unmarked) [HX355]	168 nM
